Results on three compounds are retold here after US8546357B2, “Boron-containing small molecules for controlling ectoparasites” (priority 2011, dated 2013).

Series [1] in a line: Tolerability of oral treatment in dogs. Type of series: in vivo, dog. Here is the method:
(§1) The therapeutic (knockdown) and residual efficacy of 5, administered orally at a point dose of 25 mg/kg bodyweight, was evaluated against adult American dog tick (D. variabilis) infestations on dogs. Six beagle dogs were allocated to one of two treatment groups, an untreated control group (n=4 dogs) or 5 group (n=2 dogs). On Day 0, two dogs were treated with 5 via oral gavage (25 mg/ml 5, dissolved in a solution of 55% polyethylene glycol-300, 35% propylene glycol and 10% water) at a point dose of approximately 25 mg/kg. Twenty-four (24) hours before treatment (Day −1), all dogs were infested with approximately 50 unfed, adult-stage American dog ticks (D. variabilis; approximately 50% male and 50% female). On Day 1, approximately 24 hours after treatment, thumb counts were conducted to determine the number and life-status classification of ticks present on all dogs (normal, moribund or dead; attached or detached). Ticks were not removed during thumb counts. On Day 2, approximately 48 hours after treatment, all ticks were classified and removed from dogs. Dogs were re-infested with approximately 50 unfed, adult D. variabilis ticks on Days 5 and 12, with tick classification, counts and removal on Days 7 and 14 (approximately 48 hours after each infestation).
(§2) The therapeutic (knockdown) and residual efficacy of 7 and 8, each administered orally at a point dose of 25 mg/kg bodyweight, was evaluated against adult tick (Dermacentor variabilis and Rhipicephalus sanguineus) and adult cat flea (Ctenocephalides felis) infestations on dogs. Twelve (12) male and female beagle dogs were randomly allocated to one of three treatment groups, four (4) dogs per group: Untreated control; 7, 25 mg/kg; and 8, 25 mg/kg. On Day −1, all dogs were infested with approximately 50 unfed, adult D. variabilis ticks. On Day 0, dogs were orally administered gelatin capsules containing either 7 or 8 (50% technical active, 47% microcrystalline cellulose and 3% croscarmellose sodium, w/w). Ticks were counted and classified, but not removed, on all dogs on Day 1, approximately 24 hours after treatment. On Day 2, approximately 48 hours after treatment, ticks were counted, classified and removed. Dogs were re-infested with the same number of D. variabilis ticks on Days 5, 12, 19 and 28 and tick counts were conducted on Days 7, 14, 21 and 30.
The therapeutic (knockdown) and residual efficacy of 7, administered orally at a point dose of 35 mg/kg bodyweight, was evaluated against adult tick (Dermacentor variabilis and Rhipicephalus sanguineus) and adult cat flea (Ctenocephalides felis) infestations on dogs. Twelve (12) male and female beagle dogs were allocated to either an untreated, negative control group or 7 group (n=6 dogs per group). Dogs were infested with approximately 50 unfed, adult D. variabilis ticks on Days −1, 5, 12, 19, 28, 35 and 42. On Day 0, dogs were orally administered gelatin capsules containing Compound 8194 (50% technical active, 47% microcrystalline cellulose and 3% croscarmellose sodium, w/w) at a point dose of 35 mg/kg. […] GM percent efficacy of treatments against both tick species and fleas was calculated using the following formula: […]
The therapeutic efficacy and speed of kill of 7, administered orally at a point dose of 20 mg/kg bodyweight, was evaluated against adult cat flea (Ctenocephalides felis) infestations on dogs. […]

Series [2] has as its system adult American dog tick (Dermacentor variabilis). The experiment in a line: Therapeutic (knockdown) and residual efficacy against adult American dog tick infestations on dogs, oral. The format is in vivo. On the procedure: as §1, §2
(§3) The therapeutic (knockdown) and residual efficacy of 7, administered orally at a point dose of 35 mg/kg bodyweight, was evaluated against adult tick (Dermacentor variabilis and Rhipicephalus sanguineus) and adult cat flea (Ctenocephalides felis) infestations on dogs. Twelve (12) male and female beagle dogs were allocated to either an untreated, negative control group or 7 group (n=6 dogs per group). Dogs were infested with approximately 50 unfed, adult D. variabilis ticks on Days −1, 5, 12, 19, 28, 35 and 42. On Day 0, dogs were orally administered gelatin capsules containing Compound 8194 (50% technical active, 47% microcrystalline cellulose and 3% croscarmellose sodium, w/w) at a point dose of 35 mg/kg. D. variabilis tick counts and classification were conducted on Day 1 (thumb count, approximately 24 hours after treatment) and Days 2, 7, 14, 21, 30, 37 and 44 (approximately 48 hours after treatment). Following removal of D. variabilis ticks on Day 30, all dogs were co-infested with approximately 50 unfed, adult brown dog ticks (R. sanguineus) and approximately 100 unfed, adult cat fleas (C. felis). Brown dog tick and cat flea counts were conducted on Day 32 (approximately 48 hours after infestation). GM percent efficacy of treatments against both tick species and fleas was calculated using the following formula: […]
The therapeutic (knockdown) and residual efficacy of S-enantiomer, 9, administered orally at a point dose of 25 mg/kg bodyweight, was evaluated against adult tick (Dermacentor variabilis and Rhipicephalus sanguineus) and adult cat flea (Ctenocephalides felis) infestations on dogs. […]

Series [3] has as its system brown dog tick (Rhipicephalus sanguineus). The experiment in a line: Residual efficacy against adult brown dog tick infestations on dogs, oral. The format is in vivo. To be noted: Day 32. On the procedure: (§4) Immediately following removal of D. variabilis ticks on Day 30, dogs were co-infested with approximately 50 adult, unfed brown dog ticks (R. sanguineus, approximately 50% male and 50% female) and approximately 100 adult, unfed cat fleas (C. felis, approximately 50% male and 50% female). Ticks and fleas were counted and removed on Day 32 (approximately 48 hours after infestation). GM percent efficacy of treatments against both tick species and fleas was calculated using the following formula: […]
as §3
(§5) The therapeutic (knockdown) and residual efficacy of S-enantiomer, 9, administered orally at a point dose of 25 mg/kg bodyweight, was evaluated against adult tick (Dermacentor variabilis and Rhipicephalus sanguineus) and adult cat flea (Ctenocephalides felis) infestations on dogs. Twelve (12) male and female beagle dogs were allocated to either an untreated, negative control group or 9 group (n=6 dogs per group). Dogs were infested with approximately 50 unfed, adult D. variabilis ticks on Days −1, 5, 12, 19, and 28. On Day 0, dogs were orally administered gelatin capsules containing 9 (50% technical active, 47% microcrystalline cellulose and 3% croscarmellose sodium, w/w) at a point dose of 25 mg/kg. D. variabilis tick counts and classification were conducted on Day 1 (thumb count, approximately 24 hours after treatment) and Days 2, 7, 14, 21 and 30 (approximately 48 hours after treatment). Following removal of D. variabilis ticks on Day 30, all dogs were co-infested with approximately 50 unfed, adult brown dog ticks (R. sanguineus) and approximately 100 unfed, adult cat fleas (C. felis). Brown dog tick and cat flea counts were conducted on Day 32 (approximately 48 hours after infestation). GM percent efficacy of treatments against both tick species and fleas was calculated using the following formula: […]

The subject of series [4] is cat flea (Ctenocephalides felis). The experiment in a line: Residual efficacy against adult cat flea infestations on dogs, oral. Type of series: in vivo. To be noted: Day 32. Here is the method:
as §4, §3, §5

Series [5] concerns Lone star tick larvae (Amblyomma americanum). The series can be described thus: Larval immersion microassay against larval-stage Lone star ticks. To be noted: Amblyomma americanum, 24 h, read-out: activity (percent larval mortality). Here is the method: The larval immersion microassay was conducted as described in detail in White, et al., J. Med. Entomol. 41: 1034-1042 (2004). Compounds of the invention were formulated in dimethylsulfoxide (DMSO) to prepare a stock solution at a concentration of at least 10 mM. Using 96-well microtiter plates, an aliquot of the mM sample was subsequently diluted in a water-based solution containing 1% ethanol and 0.2% Triton X-100, to obtain the desired concentration (typically 0.3 mM or lower) of compound in a volume of 0.1 ml (minimum n=3 replicates per compound or concentration). Approximately 30-50 Lone star tick larvae (Amblyomma americanum) were submerged into each well containing compounds. After a 30 minute immersion period, larvae were removed with a wide-bore pipette tip in 0.05 ml of fluid, dispensed into a commercial paper tissue biopsy bag which was sealed at the top with a plastic dialysis clip, inverted and allowed to air dry for 60 minutes. Bags containing larvae were then incubated at approximately 27 degrees Celsius and >90% relative humidity. After 24 hours, bags were opened, live and dead larvae were counted and percent larval mortality was calculated.
7 and 8 contain one chiral center each, and are racemic mixtures comprised of approximately 50% R- and 50% S-enantiomer. In vitro and surrogate animal (rat) studies were conducted to evaluate the biological activity of the R- and S-enantiomers of 7 and 8. For the in vitro study, larvae of the Lone star tick (Amblyomma americanum) were exposed to 9, 10, 11 and 12 using the larval immersion microassay at a concentration of no greater than 0.3 mM. Following exposure, larvae were removed, transferred to a tissue biopsy bag and incubated at approximately 27 degrees Celsius and >90% relative humidity. After 24 hours, biopsy bags were opened and the numbers of live and dead larvae were determined

The subject of series [6] is American dog tick (Dermacentor variabilis) nymphs. The experiment in a line: Efficacy against nymphal-stage American dog ticks on rats, oral. The format is in vivo. To be noted: fipronil positive control, oral 10 mg/kg bodyweight, all studies. Here is the method:
Evaluations were conducted using a modified version of the assay as described in Gutierrez et al., J. Med. Entomol. 43(3): 526-532 (2006). This assay may be modified by simply using different tick species (the reference describes Amblyomma americanum ticks), such as Dermacentor variabilis or Rhipicephalus sanguineus ticks, as well as different life-stages (larval, nymphal or adult). Further, the reference describes using topical application methods, but oral, transdermal and subcutaneous injection routes of administration may be used.
In these studies, adult male or female rats, approximately 300 grams in size, were randomly assigned to a treatment group or a control (untreated negative control or fipronil positive control) group. Each group consisted of three (3) to five (5) rats. […] On Day 2, approximately forty-eight (48) hours after treatment, live and dead ticks were removed from animals and counted.
Live tick counts were transformed using the natural logarithm transformation plus one (Ln count+1); addition of one to each count served to adjust for counts that were zero. […] GM percent efficacy of treatments was calculated using the following formula:
Enantiomers were evaluated for activity against American dog tick (Dermacentor variabilis) nymphs on rats. […] On Day 2, approximately forty-eight (48) hours after treatment, live and dead ticks were removed from animals and counted. […]

The mark [7] stands for this setting: Table 2, oral capsule 25 mg/kg, Day 2.
The mark [8] stands for this setting: Table 2, oral capsule 25 mg/kg, Day 7.
Where [9] appears, read: Table 2, oral capsule 25 mg/kg, Day 14.
Setting [10] is: Table 2, oral capsule 25 mg/kg, Day 21.
Where [11] appears, read: Table 2, oral capsule 25 mg/kg, Day 30.
[12] abbreviates: Table 6, oral capsule 25 mg/kg, Day 2.
The mark [13] stands for this setting: Table 6, oral capsule 25 mg/kg, Day 7.
Where [14] appears, read: Table 6, oral capsule 25 mg/kg, Day 14.
[15] abbreviates: Table 6, oral capsule 25 mg/kg, Day 21.

For the compound `Cc1cc(C2=NOC(c3cc(Cl)c(F)c(Cl)c3)(C(F)(F)F)C2)ccc1C(=O)NCc1ccc2c(c1)B(O)OC2(C)C` (racemic) [Compound 8, 4-(5-(3,5-Dichloro-4-fluorophenyl)-5-(trifluoromethyl)-4,5-dihydroisoxazol-3-yl)-N-((1-hydroxy-3,3-dimethyl-1,3-dihydrobenzo[c][1,2]oxaborol-6-yl)methyl)-2-methylbenzamide], the tolerability entry in series [1] (Example 6, oral capsule 25 mg/kg) is “well tolerated”. Moreover, in series [2] (Example 6, oral capsule 25 mg/kg, through at least 14 days), the continued residual efficacy is on record as 100%. Besides, the “Geometric mean group live parasite counts” value in series [2] (Table 2, oral capsule 25 mg/kg, Day 1) was 0.0; in series [2] (setting [7]), 0.0; in series [2] (setting [8]) it was 0.0; in series [2] (setting [9]), 0.0; in series [2] (setting [10]) it was 0.7; in series [2] (setting [11]), 6.7. Besides, the “Geometric mean group live parasite counts” value is 4.1 in series [3] (Table 2, oral capsule 25 mg/kg) and 7.1 in series [4] (Table 2, oral capsule 25 mg/kg). The “% efficacy” value in series [2] (setting [7]) is given as “(100) %”; in series [2] (setting [8]), “(100) %”; in series [2] (setting [9]) it was “(100) %”; in series [2] (setting [10]), “(98.4) %”; in series [2] (setting [11]), “(81.0) %”. Besides, the mortality at 300 µM in series [5] is at least 80%.
Turning to `Cc1cc(C2=NO[C@@](c3cc(Cl)c(Cl)c(Cl)c3)(C(F)(F)F)C2)ccc1C(=O)NCc1ccc2c(c1)B(O)OC2(C)C` [Compound 9, (S)—N-((1-hydroxy-3,3-dimethyl-1,3-dihydrobenzo[c][1,2]oxaborol-6-yl)methyl)-2-methyl-4-(5-(3,4,5-trichlorophenyl)-5-(trifluoromethyl)-4,5-dihydroisoxazol-3-yl)benzamide], the tolerability entry in series [1] (Example 10, oral capsule 25 mg/kg) was “well tolerated”. The compound also displayed a continued residual efficacy in series [2] (Example 10, oral capsule 25 mg/kg, through Day 21) of 100%. Moreover, the “Geometric mean group live parasite counts” value in series [2] (Table 6, oral capsule 25 mg/kg, Day 1) stood at 0.0; in series [2] (setting [12]), 0.0; in series [2] (setting [13]), 0.0; in series [2] (setting [14]), 0.0; in series [2] (setting [15]), 0.0; in series [2] (Table 6, oral capsule 25 mg/kg, Day 30), 1.1. Also, the “Geometric mean group live parasite counts” value came to 0.5 in series [3] (Table 6, oral capsule 25 mg/kg) and 0.9 in series [4] (Table 6, oral capsule 25 mg/kg). Moreover, the “% efficacy” value in series [2] (setting [12]), in series [2] (setting [13]), in series [2] (setting [14]) and in series [2] (setting [15]) was “(100) %” each time. The mortality at 300 µM in series [5] is at least 80%.
Consider `N#Cc1nn(-c2c(Cl)cc(C(F)(F)F)cc2Cl)c(N)c1[S+]([O-])C(F)(F)F` (centres unmarked) [Fipronil, fipronil, reference compound], for which the “efficacy (% reduction in live tick counts)” value in series [6] is reported as over 95%.

Broadly, the mortality is the percentage killed.
